# Key:
# Type in all cases: in vivo
# [1] = test system: caterpillars of the army worm (Spodoptera frugiperda); test: Spodoptera frugiperda test; conditions: 1000 ppm, cabbage leaves (Brassica oleracea) dipped
# Description: (§1) Spodoptera frugiperda Test • Solvent: 30 parts by weight of dimethylformamide • Emulsifier: 1 part by weight of alkylaryl polyglycol ether To produce a suitable preparation of active compound, 1 part by weight of active compound is mixed with the stated amounts of solvent and emulsifier, and the concentrate is diluted with emulsifier-containing water to the desired concentration. Cabbage leaves (Brassica oleracea) are treated by being dipped into the preparation of active compound of the desired concentration and are populated with caterpillars of the army worm (Spodoptera frugiperda) while the leaves are still moist. After the desired period of time, the kill in % is determined. 100% means that all caterpillars have been killed; 0% means that none of the caterpillars have been killed.
# Liriomyza trifolii = test: Liriomyza test; conditions: 1000 ppm, bean plants (Phaseolus vulgaris) dipped
# Description: Liriomyza Test • Solvent: 3 parts by weight of dimethylformamide • Emulsifier: 1 part by weight of alkylaryl polyglycol ether To produce a suitable preparation of active compound, 1 part by weight of active compound is mixed with the stated amounts of solvent and emulsifier, and the concentrate is diluted with emulsifier-containing water to the desired concentration. Bean plants (Phaseolus vulgaris) which are infested by eggs and development stages of […] (Liriomyza trifolii) are dipped into a preparation of active compound of the desired concentration. After the desired period of time, the effect in % is determined. 100% means that all […] have been killed; 0% means that none of the […] have been killed.
# Meloidogyne icognita = test: Meloidogyne test; conditions: 20 ppm, lettuce in sand, nematicidal action by formation of galls
# Description: Meloidogyne Test • Solvent: 30 parts by weight of dimethylformamide • Emulsifier: 1 part by weight of alkylaryl polyglycol ether To produce a suitable preparation of active compound, 1 part by weight of active compound is mixed with the stated amounts of solvent and emulsifier, and the concentrate is diluted with emulsifier-containing water to the desired concentration. Vessels are filled with sand, solution of active compound, Meloidogyne icognita egg/larvae suspension and lettuce seeds. The lettuce seeds germinate and the plants develop. On the roots, galls develop. After the desired period of time, the nematicidal action is determined in % by the formation of galls. 100% means that no galls have been found; 0% means that the number of galls on the treated plants corresponds to that of the untreated control.
# [2] = test system: larvae of the mustard beetle (Phaedon cochloeariae); test: Phaedon larvae test; conditions: 1000 ppm, cabbage leaves (Brassica oleracea) dipped
# Description: as §1, with “Phaedon larvae Test” for “Spodoptera frugiperda Test”, “with larvae” for “with caterpillars”, “the mustard beetle (Phaedon cochloeariae)” for “the army worm (Spodoptera frugiperda)”, “all beetle larvae” for “all caterpillars”, “the beetle larvae” for “the caterpillars”
smiles,measurement,setting,value
N#CC1CC(c2ccccc2Cl)=NC1c1ccc(-c2ccc(OC(F)(F)F)cc2)cc1 (centres unmarked),Kill rate in % after 7 days,[1],100%
CC(C)c1ccc(-c2ccc(C3N=C(c4ccccc4Cl)CC3C#N)cc2)cc1 (centres unmarked),Kill rate in % after 7 days,[1],100%
COC(=O)C1CC(c2c(F)cccc2F)=NC1c1ccc(-c2ccc(OC(F)(F)F)cc2)cc1 (centres unmarked) [drawing 145],Kill rate in % after 7 days,Liriomyza trifolii,100%
COC(=O)C1CC(c2c(F)cccc2F)=NC1c1ccc(-c2ccc(OC(F)(F)F)cc2)cc1 (centres unmarked) [drawing 146],Kill rate in % after 14 days,Meloidogyne icognita,100%
N#CC1CC(c2c(F)cccc2F)=NC1c1ccc(-c2ccc(OC(F)(F)F)cc2)cc1 (centres unmarked) [drawing 147],Kill rate in % after 14 days,Meloidogyne icognita,90%
COC(=O)C1CC(c2c(F)cccc2F)=NC1c1ccc(-c2ccc(OC(F)(F)F)cc2)cc1 (centres unmarked) [drawing 148],Kill rate in % after 7 days,[2],100%
N#CC1CC(c2c(F)cccc2F)=NC1c1ccc(-c2ccc(OC(F)(F)F)cc2)cc1 (centres unmarked) [drawing 149],Kill rate in % after 7 days,[2],100%
COC(=O)C1CC(c2ccccc2Cl)=NC1c1ccc(-c2ccc(OC(F)(F)F)cc2)cc1 (centres unmarked) [drawing 150],Kill rate in % after 7 days,[2],100%
COC(=O)C1CC(c2c(F)cccc2F)=NC1c1ccc(-c2ccc(OC(F)(F)F)cc2)cc1 (centres unmarked) [drawing 151],Kill rate in % after 7 days,[1],100%
COC(=O)C1CC(c2ccccc2Cl)=NC1c1ccc(-c2ccc(OC(F)(F)F)cc2)cc1 (centres unmarked) [drawing 152],Kill rate in % after 7 days,[1],100%
N#CC1CC(c2c(F)cccc2F)=NC1c1ccc(-c2ccc(OC(F)(F)F)cc2)cc1 (centres unmarked) [drawing 154],Kill rate in % after 7 days,[1],100%

# Reference: US6995185B2, “Δ1-pyrrolines used as pesticides” (Bayer Cropscience AG, priority 2000, dated 2006)
